One test addresses T1, MMP-14 (Homo sapiens, UniProt P50281).
T1 construct: The catalytic domain enzyme was expressed in E. coli inclusion bodies, solubilized in urea; made in house
Description: In vitro MMP inhibition, Ki determination (fluorogenic substrate II). It is filed as biochemical. Conditions: value not in parenthesis; read-out: MMP-14 Ki. In a few lines:
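Apparent Ki was fitted with Morrison's equation from reaction rates at a single low enzyme level. Enzyme was APMA- or trypsin-activated refolded MMP-14 catalytic domain, buffered at pH 7.5 with 10 mM CaCl2.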

The target in the next test is T2, MMP-13 (Homo sapiens, UniProt P45452).
T2 construct: made in house; host or cells: baculovirus / insect cells
The description is as above. It is filed as biochemical. Particulars: read-out: MMP-13 Ki. In a few lines: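 Room-temperature, 1 h incubation of APMA-activated recombinant human MMP-13 with 4 μM quenched substrate II (cleaved at Gly-Leu) in pH 7.5 Tris/NaCl/CaCl2 buffer. Inhibition appears as a slowed rise in 330/420 nm fluorescence. Single low enzyme and substrate levels were used for Ki.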

As a reminder, the Ki is the equilibrium dissociation constant of an inhibitor or competing ligand from its target.

Each structure is given as a SMILES string. Like-named read-outs stand apart in the source and are kept apart here. Bounds are passed on as bounds.

For the compound `CCCCc1ccc(C2CCN(S(=O)(=O)C3(C(=O)NO)CCN(CCOC)CC3)CC2)s1` [Example 55], the Ki at MMP-14 turned out to be 2450 nM; on MMP-13 (value not in parenthesis) it was 3.94 nM. With `O=C(NO)C1(S(=O)(=O)N2CCN(c3ccc(COCC(F)(F)C(F)F)cc3)CC2)CCOCC1` [Example 71], the Ki at MMP-13 (value not in parenthesis) worked out at 0.79 nM. Consider `O=C(NO)C1(S(=O)(=O)N2CCN(c3ccc(COCC(F)(F)F)cc3)CC2)CCOCC1` [Example 72], for which the Ki was 7570 nM on MMP-14 and 0.85 nM on MMP-13 (value not in parenthesis). For `O=C(NO)C1(S(=O)(=O)N2CCN(c3ccc(OC4CCC4)c(F)c3)CC2)CCOCC1` [Example 73], in that order: 2360 nM and 9.78 nM. As to `O=C(NO)C1(S(=O)(=O)N2CCN(c3ccc(OCc4ccccc4)cn3)CC2)CCOCC1` [Example 74], the Ki on MMP-14 amounted to 454 nM; at MMP-13 (value not in parenthesis) it was 0.06 nM.

As for `O=C(NO)C1(S(=O)(=O)N2CCN(c3ccc(-c4ccccc4)cc3)CC2)CCOCC1` [Example 76], the Ki on MMP-14 amounted to 358 nM; at MMP-13 (value not in parenthesis), 0.4 nM. For `O=C(NO)C1(S(=O)(=O)N2CCN(c3ccc(CCC(F)(F)F)cc3)CC2)CCOCC1` [Example 77], in that order: 1180 nM and 0.84 nM. In the same order, the values of `CCN1CCC(C(=O)NO)(S(=O)(=O)N2CCN(c3ccc(OCCCC(F)(F)F)cc3)CC2)CC1` [Example 78] are over 10000 nM and 0.43 nM.

Take `CC(C)COc1ccc(N2CCN(S(=O)(=O)C3(C(=O)NO)CCOCC3)CC2)cc1Cl` [Example 79]: the Ki on MMP-14 is 8820 nM; at MMP-13 (value not in parenthesis) it was 6.62 nM. For `O=C(NO)C1(S(=O)(=O)N2CCN(c3ccc(OCCCC(F)(F)F)cc3F)CC2)CCOCC1` [Example 81], in that order: 2430 nM and 0.261 nM. In the same order, the values of `O=C(NO)C1(S(=O)(=O)N2CCN(c3cccc(C(F)(F)F)c3)CC2)CCOCC1` [Example 82] are 1600 nM and 7.49 nM.

Regarding `O=C(NO)C1(S(=O)(=O)N2CCN(c3ccc(OCCCC(F)(F)F)cn3)CC2)CCOCC1` [Example 83], the results for the inhibition constant (Ki) on MMP-14 and on MMP-13 (value not in parenthesis) were 981 nM and 0.048 nM, respectively. In the same order, the values of `CCCCOc1ccc(N2CCN(S(=O)(=O)C3(C(=O)NO)CCN(C(C)(C)C)CC3)CC2)c(F)c1` [Example 84] are over 10000 nM and 1.91 nM.

Take `CCCCOc1ccc(N2CCN(S(=O)(=O)C3(C(=O)NO)Cc4ccccc4C3)CC2)nc1` [Example 85]: the figures for the Ki on MMP-14 and on MMP-13 (value not in parenthesis) were 1510 nM and 0.25 nM, respectively. Turning to `COCCN1CCC(C(=O)NO)(S(=O)(=O)N2CCN(c3ccc(OCCCCF)cc3)CC2)CC1` [Example 88], the Ki on MMP-14 was 2760 nM; on MMP-13 (value not in parenthesis), 0.18 nM. In the same order, the values of `O=C(NO)C1(S(=O)(=O)N2CCN(c3ccc(OCCCCF)cc3)CC2)CCOCC1` [Example 89] are 2800 nM and 0.17 nM. In the same order, the values of `CCCCOc1ccc(N2CCN(S(=O)(=O)C3(C(=O)NO)CCOCC3)CC2)c(F)c1` [Example 90] are 4550 nM and 0.39 nM. With `CCCCc1ccc(N2CCN(S(=O)(=O)C3(C(=O)NO)CCOCC3)CC2)c(F)c1` [Example 91], the inhibition constant Ki at MMP-14 is 1740 nM; at MMP-13 (value not in parenthesis), 1.64 nM. For the compound `CCCCOc1ccc(N2CCN(S(=O)(=O)C3(C(=O)NO)CCN(c4nc5ccccc5s4)CC3)CC2)cc1` [Example 93], the Ki worked out at 9860 nM at MMP-14 and 26 nM on MMP-13 (value not in parenthesis). For `O=C(NO)C1(S(=O)(=O)N2CCN(c3ccc(C(F)(F)F)cn3)CC2)CCOCC1` [Example 94], in that order: 221 nM and 0.82 nM. For `CCCCOc1ccc(N2CCN(S(=O)(=O)C3(C(=O)NO)CCN(c4ccc(C)cc4)CC3)CC2)cc1F` [Example 296], the Ki on MMP-13 (value outside parentheses) was found to be 9.22 nM.

As for `COCCOc1ccc(N2CCN(S(=O)(=O)C3(C(=O)NO)CCN(C4CC4)CC3)CC2)cc1F` [Example 297], on MMP-13 (value outside parentheses), the Ki was 1.4 nM. On the same count and under the same terms, as for `CCCCOc1ccc(N2CCN(S(=O)(=O)C3(C(=O)NO)CCN(C4CC4)CC3)CC2)cc1` [Example 301], the figure is 0.23 nM.

Values taken from patent publication US20050209278A1, “Piperidinyl- and piperazinyl-sulfonylmethyl hydroxamic acids and their use as protease inhibitors” (priority 2002, published 2005).
